In patent US20180244611A1, “Modulators of the Cystic Fibrosis Transmembrane Conductance Regulator Protein and Methods of Use” (AbbVie S.à.r.l., priority 2017, published 2018):

Legend:
[1] = biological target: T1, F508delCFTR (Homo sapiens, UniProt P13569, DEL508-508); assay: Cell Surface Expression-Horse Radish Peroxidase (CSE-HRP) assay, test compound without co-corrector; format: cell-based; settings: for EC50: test compound without co-corrector;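 on Maximum % activity (without co-corrector): percent of on-plate 2 µM positive control corrector response over DMSO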
T1 construct: expressed in transfected cells; host or cells: CFBE41o- human lung-derived epithelial cells (CFBE41o-F508delCFTR-HRP), doxycycline-inducible
Description: (§1) Cell Surface Expression-Horse Radish Peroxidase (CSE-HRP) Assay
(§2) A cellular assay for measuring the F508delCFTR cell surface expression after correction with test compounds either without or with a co-corrector (2 μM of 3-[(2R,4R)-4-({[1-(2,2-difluoro-1,3-benzodioxol-5-yl)cyclopropyl]carbonyl}amino)-7-methoxy-3,4-dihydro-2H-chromen-2-yl]benzoic acid), was developed in human lung derived epithelial cell line (CFBE41o-) (Veit G et al, (2012) Mol Biol Cell. 23(21): 4188-4202). The development was achieved by expressing the F508delCFTR mutation along with a horseradish peroxidase (HRP) in the fourth exofacial loop, and then measuring the HRP activity using luminescence readout from these cells, CFBE41o-F508delCFTR-HRP, that were incubated overnight with the test corrector compounds, either without or with the co-corrector. For this primary assay, the CFBE41o-F508delCFTR-HRP cells were plated in 384-well plates (Greiner Bio-one; Cat 781080) at 4,000 cells/well along with 0.5 μg/mL doxycycline to induce the F508delCFTR-HRP expression and further incubated at 37° C., 5% CO2 for 72 hours. The test compounds were then added either without or with a co-corrector at the required concentrations and further incubated for 18-24 hours at 33° C. The highest concentration tested was 20 μM with an 8-point concentration response curve using a 3-fold dilution in both the test compound without or with the co-corrector. Three replicate plates were run to determine one EC50. All plates contained negative controls (dimethyl sulfoxide, DMSO) and positive control (2 μM of 3-[(2R,4R)-4-({[1-(2,2-difluoro-1,3-benzodioxol-5-yl)cyclopropyl]carbonyl}amino)-7-methoxy-3,4-dihydro-2H-chromen-2-yl]benzoic acid) as well as on-plate concentration response of the positive control. Post incubation, the plates were washed 5× times with Dulbecco's phosphate buffered saline (DPBS), followed by the addition of the HRP substrate, luminol (50 μL), and measuring the HRP activity using luminescence readout on EnVision® Multilabel Plate Reader (Perkin Elmer; product number 2104-0010). The raw counts from the experiment were analyzed using Accelrys® Assay Explorer v3.3.
(§3) Z′ greater than 0.5 was used as passing quality control criteria for the plates.
(§4) 1−[3*SDPositive Control+3*SDNegative Control/Absolute (MeanPositive Control−MeanNegative Control)]
(§5) wherein “SD” is standard deviation.
(§6) The % activity measured at each of the 8 test concentrations of the test compound added either without or with a co-corrector (2 μM of 3-[(2R,4R)-4-({[1-(2,2-difluoro-1,3-benzodioxol-5-yl)cyclopropyl]carbonyl}amino)-7-methoxy-3,4-dihydro-2H-chromen-2-yl]benzoic acid) was normalized to the on-plate positive control using the following formulae:
% activity (Test compound without co-corrector)=[(test compound without co-corrector response−DMSO response)/(positive control response−DMSO response)]*100%
(§7) The maximum % activity achieved for the test compound either without or with a co-corrector at any tested concentration is presented in Table 1 along with the respective EC50's calculated using the following general sigmoidal curve with variable Hill slope equation (described as Model 42 in the Accelrys® Assay Explorer v3.3 software):
(§8) General sigmoidal curve with concentration, response, top, bottom, EC50 and Hill slope. This model describes a sigmoidal curve with an adjustable baseline, a. The equation can be used to fit curves where response is either increasing or decreasing with respect to the independent variable, “x”.
“x” is a concentration of drug under test. “y” is the response. “a” is the maximum response, and “d” is the minimum response “c” is the inflection point (EC50) for the curve. That is, “y” is halfway between the lower and upper asymptotes when x=c. “b” is the slope-factor or Hill coefficient. The sign of b is positive when the response increases with increasing dose and is negative when the response decreases with increasing dose (inhibition). The data is presented with the qualifiers shown below: […]

[2] = biological target: T1, F508delCFTR; assay: Cell Surface Expression-Horse Radish Peroxidase (CSE-HRP) assay, test compound with co-corrector; format: cell-based; settings: with 2 μM co-corrector; for Maximum % activity (with co-corrector): maximum at any tested concentration, normalized to positive control;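 on Maximum % activity (with co-corrector): percent of 2 µM positive control corrector over DMSO; co-corrector is that same compound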
Description: as §1, §2, §3, §4, §5, §6
activity (Test compound with co-corrector)=[(test compound with co-corrector response−DMSO response)/(positive control response−DMSO response)]*100
as §7, §8
“x” is a concentration of drug under test. “y” is the response. “a” is the maximum response, and “d” is the minimum response “c” is the inflection point (EC50) for the curve. That is, “y” is halfway between the lower and upper asymptotes when x=c. “b” is the slope-factor or Hill coefficient. The sign of b is positive when the response increases with increasing dose and is negative when the response decreases with increasing dose (inhibition).

[3] = maximum at any tested concentration, normalized to positive control, without co-corrector

T1 sequence (P13569 with tags, fused parts or gaps DEL508-508): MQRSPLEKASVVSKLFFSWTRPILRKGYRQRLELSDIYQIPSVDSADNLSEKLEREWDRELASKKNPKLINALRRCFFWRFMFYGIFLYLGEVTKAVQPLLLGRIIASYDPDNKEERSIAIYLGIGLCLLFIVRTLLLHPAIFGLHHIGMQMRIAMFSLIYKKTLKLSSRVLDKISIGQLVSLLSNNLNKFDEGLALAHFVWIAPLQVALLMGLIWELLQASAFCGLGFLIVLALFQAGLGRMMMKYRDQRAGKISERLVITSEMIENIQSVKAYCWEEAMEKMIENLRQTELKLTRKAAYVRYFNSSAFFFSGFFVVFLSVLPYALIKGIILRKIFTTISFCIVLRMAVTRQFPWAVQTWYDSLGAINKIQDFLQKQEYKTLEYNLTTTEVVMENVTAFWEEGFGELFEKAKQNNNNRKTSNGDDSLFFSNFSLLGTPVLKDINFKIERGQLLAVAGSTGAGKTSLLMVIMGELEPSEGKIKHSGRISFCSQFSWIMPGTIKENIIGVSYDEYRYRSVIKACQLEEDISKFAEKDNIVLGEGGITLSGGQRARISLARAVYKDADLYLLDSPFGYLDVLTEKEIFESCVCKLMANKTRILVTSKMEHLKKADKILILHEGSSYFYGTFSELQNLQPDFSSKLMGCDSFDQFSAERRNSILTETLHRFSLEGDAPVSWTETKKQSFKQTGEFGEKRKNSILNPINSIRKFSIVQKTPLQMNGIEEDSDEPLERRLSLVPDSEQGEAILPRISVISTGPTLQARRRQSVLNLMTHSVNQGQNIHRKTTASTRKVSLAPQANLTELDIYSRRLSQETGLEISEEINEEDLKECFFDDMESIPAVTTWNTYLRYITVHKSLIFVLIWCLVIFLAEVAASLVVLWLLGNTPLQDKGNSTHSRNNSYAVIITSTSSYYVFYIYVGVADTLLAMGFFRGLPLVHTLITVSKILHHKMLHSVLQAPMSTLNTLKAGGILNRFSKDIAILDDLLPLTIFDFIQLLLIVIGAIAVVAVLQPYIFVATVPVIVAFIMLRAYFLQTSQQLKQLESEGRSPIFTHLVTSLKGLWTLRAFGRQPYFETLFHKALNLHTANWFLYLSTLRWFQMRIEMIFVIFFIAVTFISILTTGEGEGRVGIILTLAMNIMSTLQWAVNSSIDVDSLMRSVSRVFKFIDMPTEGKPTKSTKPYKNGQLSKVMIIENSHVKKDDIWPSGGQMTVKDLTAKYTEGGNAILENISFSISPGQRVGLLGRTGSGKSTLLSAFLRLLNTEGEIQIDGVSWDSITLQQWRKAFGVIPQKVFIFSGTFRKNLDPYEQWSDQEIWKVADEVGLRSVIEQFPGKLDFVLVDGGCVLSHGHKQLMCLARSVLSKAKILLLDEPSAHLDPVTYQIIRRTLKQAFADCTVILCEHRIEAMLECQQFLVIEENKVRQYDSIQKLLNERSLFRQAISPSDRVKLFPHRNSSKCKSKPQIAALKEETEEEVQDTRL

| Compound | Maximum % activity (without co-corrector) [1, 3] | EC50 [1] [µM] | Maximum % activity (with co-corrector) [2] | EC50 [2] [µM] | Emax [1, 3] [%] |
| --- | --- | --- | --- | --- | --- |
| 2-cyclobutyl-5-methoxy-N-(1-methyl-1H-benzimidazole-7-sulfonyl)bicyclo[4.2.0]octa-1,3,5-triene-7-carboxamide [Example I-134] | +++ (≥150) | < 3 | +++ (≥350) | < 3 | – |
| COc1ccc(Br)c2c1[C@@H](C(=O)NS(=O)(=O)c1cccc3ncccc13)CCC2 (single isomer, unassigned) [Example I-62] | – | 3 to 10 | +++ (≥350) | < 3 | ≥ 150 |
| COc1ccc(Br)c2c1[C@H](C(=O)NS(=O)(=O)c1cccc3ncccc13)CCC2 (single isomer, unassigned) [Example I-63] | – | < 3 | +++ (≥350) | < 3 | ≥ 150 |
| COc1ccc(Cl)c2c1CC[C@H]2C(=O)NS(=O)(=O)c1cccc2ccccc12 (single isomer, unassigned) [Example I-86] | – | 3 to 10 | +++ (≥350) | < 3 | ≥ 150 |
| COc1ccc(Cl)c2c1CC[C@@H]2C(=O)NS(=O)(=O)c1cccc2ccccc12 (single isomer, unassigned) [Example I-87] | – | 3 to 10 | +++ (≥350) | 3 to 10 | 50 to 150 |
| COc1ccc(C2CCC2)c2c1[C@@H](C(=O)NS(=O)(=O)c1cccc3ccccc13)C2 (single isomer, unassigned) [Example I-106] | – | 3 to 10 | +++ (≥350) | < 3 | ≥ 150 |
| COc1ccc(C2CCC2)c2c1[C@H](C(=O)NS(=O)(=O)c1cccc3ccccc13)C2 (single isomer, unassigned) [Example I-107] | – | < 3 | +++ (≥350) | < 3 | ≥ 150 |
| COc1ccc(C2CCC2)c2c1[C@@H](C(=O)NS(=O)(=O)c1cccc3cnn(C)c13)CC2 (single isomer, unassigned) [Example I-141] | – | 3 to 10 | +++ (≥350) | < 3 | ≥ 150 |
| COc1ccc(C2CCC2)c2c1[C@H](C(=O)NS(=O)(=O)c1cccc3cnn(C)c13)CC2 (single isomer, unassigned) [Example I-142] | – | < 3 | +++ (≥350) | < 3 | ≥ 150 |
| COc1ccc(C2CCC2)c2c1[C@@H](C(=O)NS(=O)(=O)c1cccc3cnn(C)c13)C2 (single isomer, unassigned) [Example I-143] | – | 3 to 10 | +++ (≥350) | < 3 | 50 to 150 |
| COc1ccc(C2CCC2)c2c1[C@@H](C(=O)NS(=O)(=O)c1cccc3c1CCCN3)C2 (single isomer, unassigned) [Example I-145] | – | 3 to 10 | +++ (≥350) | 3 to 10 | ≥ 150 |
| COc1ccc(C2CCC2)c2c1[C@@H](C(=O)NS(=O)(=O)c1cccc3ncccc13)C2 (single isomer, unassigned) [Example I-147] | – | 3 to 10 | +++ (≥350) | < 3 | ≥ 150 |
| COc1ccc(C2CCC2)c2c1[C@H](C(=O)NS(=O)(=O)c1cccc3ncccc13)C2 (single isomer, unassigned) [Example I-148] | – | < 3 | +++ (≥350) | < 3 | ≥ 150 |
| Cc1ccccc1S(=O)(=O)NC(=O)[C@H]1CCc2c(Cl)cccc21 (single isomer, unassigned) [II-29] | – | 3 to 10 | ++ (≥150 and <350) | < 3 | 50 to 150 |
| COc1cccc2c1CCC2C(=O)NS(=O)(=O)c1cccc2ccccc12 (stereo not drawn) [Example I-1, 4-methoxy-N-(naphthalene-1-sulfonyl)-2,3-dihydro-1H-indene-1-carboxamide] | – | 3 to 10 | +++ (≥350) | 3 to 10 | ≥ 150 |
| O=C(NS(=O)(=O)c1cccc2ccccc12)C1CCCc2cccc(Cl)c21 (stereo not drawn) [Example I-2, 8-chloro-N-(naphthalene-1-sulfonyl)-1,2,3,4-tetrahydronaphthalene-1-carboxamide] | – | 3 to 10 | +++ (≥350) | < 3 | ≥ 150 |
| COc1cccc2c1CCC[C@H]2C(=O)NS(=O)(=O)c1cccc2ccccc12 [Example I-3, (1R)-5-methoxy-N-(naphthalene-1-sulfonyl)-1,2,3,4-tetrahydronaphthalene-1-carboxamide] | – | 3 to 10 | +++ (≥350) | 3 to 10 | ≥ 150 |
| COc1cccc2c1CCCC2C(=O)NS(=O)(=O)c1cccc2ccccc12 (stereo not drawn) [Example I-4, 5-methoxy-N-(naphthalene-1-sulfonyl)-1,2,3,4-tetrahydronaphthalene-1-carboxamide] | – | 3 to 10 | +++ (≥350) | 3 to 10 | ≥ 150 |
| O=C(NS(=O)(=O)c1cccc2ccccc12)C1(Cc2ccccc2)CCc2c(Cl)cccc21 (stereo not drawn) [Example I-5, 1-benzyl-4-chloro-N-(naphthalene-1-sulfonyl)-2,3-dihydro-1H-indene-1-carboxamide] | – | < 3 | +++ (≥350) | < 3 | ≥ 150 |
| COc1cccc2c1CC[C@@]2(C)C(=O)NS(=O)(=O)c1cccc2ccccc12 [Example I-6, (1R)-4-methoxy-1-methyl-N-(naphthalene-1-sulfonyl)-2,3-dihydro-1H-indene-1-carboxamide] | – | 3 to 10 | +++ (≥350) | 3 to 10 | ≥ 150 |
| CCC1(C(=O)NS(=O)(=O)c2cccc3ccccc23)CCc2c(Cl)cccc21 (stereo not drawn) [Example I-7, 4-chloro-1-ethyl-N-(naphthalene-1-sulfonyl)-2,3-dihydro-1H-indene-1-carboxamide] | – | < 3 | +++ (≥350) | < 3 | ≥ 150 |
| O=C(NS(=O)(=O)c1cccc2ccccc12)C1CCc2c(Cl)cccc21 (stereo not drawn) [Example I-8, 4-chloro-N-(naphthalene-1-sulfonyl)-2,3-dihydro-1H-indene-1-carboxamide] | – | 3 to 10 | +++ (≥350) | 3 to 10 | ≥ 150 |
| CCCCC1(C(=O)NS(=O)(=O)c2cccc3ccccc23)CCc2c(Cl)cccc21 (stereo not drawn) [Example I-30, 1-butyl-4-chloro-N-(naphthalene-1-sulfonyl)-2,3-dihydro-1H-indene-1-carboxamide] | – | – | +++ (≥350) | < 3 | – |
